The target in the assay is T1, human recombinant 15-PGDH (Homo sapiens, UniProt P15428).
T1 sequence (P15428 1-266): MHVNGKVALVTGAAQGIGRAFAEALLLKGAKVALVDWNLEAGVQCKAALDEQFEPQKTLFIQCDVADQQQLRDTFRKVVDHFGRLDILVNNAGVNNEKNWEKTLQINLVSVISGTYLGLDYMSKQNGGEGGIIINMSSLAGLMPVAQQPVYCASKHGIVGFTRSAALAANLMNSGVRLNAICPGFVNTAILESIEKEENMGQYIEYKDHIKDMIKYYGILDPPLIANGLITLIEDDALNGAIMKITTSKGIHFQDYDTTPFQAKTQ
Put plainly: Recombinant 15-PGDH enzymatic inhibition assay (PGDH-Lumi, NADH signal). In kind it is biochemical. Particulars: recombinant 15-PGDH; 15 min pre-incubation, 60 min reaction with PGE2 and NAD+, NADH signal. How it is done: These assays measured 15-PGDH enzymatic activity by quantifying the amount of NADH produced during a 60-minute reaction initiated by the addition of PGE2 and NAD+. Under the conditions of these experiments, the increase of NADH signal upon oxidation of PGE2 and reduction of NAD+ was linearly proportional to 15-PGDH enzymatic activity. The recombinant human, mouse, rat and dog 15-PGDH enzymatic assays were performed in a 25 μL volume of reaction buffer containing 50 mM Tris, pH 7.5, 0.01% Tween-20 and […] DTT in a 384-well microtiter plate. In concentration-response experiments with tested compounds, 22 concentrations from 2-fold serial dilutions in DMSO were pre-incubated with 15-PGDH for 15 minutes at room temperature. Then, PGE2 and β-NAD+ were added to initiate the 15-PGDH reaction. After 60 minutes at room temperature, the reaction was quenched and NADH signal was measured using a microtiter plate reader.
The following data (Table 27-1) provides the IC50 in μM of each compound for inhibiting enzymatic activity of the recombinant 15-PGDH in the assay described above.
Turning to `Cn1cc2cc(-c3cc(C4CC4)nc4sc(C(O)C5CCC5)cc34)cnc2n1` (stereo not drawn) [Compound B7, cyclobutyl(6-cyclopropyl-4-(2-methyl-2H-pyrazolo[3,4-b]pyridin-5-yl)thieno[2,3-b]pyridin-2-yl)methanol], the IC50 (commonly the point on the concentration scale where inhibition reaches its midpoint) was 14.9 nM.
Take `O[C@H](c1cc2ccc(-c3ccc4oncc4c3)nc2s1)C1CCOCC1` (single isomer, unassigned) [Compound B43S]: the IC50 was determined as 626 nM.
As to `CC(C)n1ncc2cc(-c3ccc4cc([C@@H](O)C5CC(F)(F)C5)sc4n3)cnc21` (single isomer, unassigned) [Compound B65S], the IC50 came to 23.1 nM.
In the case of `CC(C)[C@H](O)c1cc2ccc(-c3cnc4nn(C)cc4c3)nc2s1` (single isomer, unassigned) [Compound B24S], the IC50 is 15.9 nM.
With `COCc1cc2c(C3CCC3)cc(-c3cnc4nn(C)cc4c3)nc2s1` [Compound A3, 5-(4-cyclobutyl-2-(methoxymethyl)thieno[2,3-b]pyridin-6-yl)-2-methyl-2H-pyrazolo[3,4-b]pyridine], the IC50 turned out to be 671 nM.
Regarding `CC(O)c1cc2c(-c3cnc4nn(C)cc4c3)cc(-c3cnc4nn(C)cc4c3)nc2s1` (stereo not drawn) [Compound B10, 1-(4,6-bis(2-methyl-2H-pyrazolo[3,4-b]pyridin-5-yl)thieno[2,3-b]pyridin-2-yl)ethanol], the IC50 was determined as 139 nM.
`Cn1cc2cc(-c3ccc4cc(C5(O)CCOCC5)sc4n3)cnc2n1` [Compound C22, 4-(6-(2-methyl-2H-pyrazolo[3,4-b]pyridin-5-yl)thieno[2,3-b]pyridin-2-yl)tetrahydro-2H-pyran-4-ol]: the IC50 was 257 nM.
Take `Cn1cc2cc(-c3cnc4sc([C@H](O)C5CC(F)(F)C5)cc4n3)cnc2n1` [Compound B96R, (R)-(3,3-difluorocyclobutyl)(2-(2-methyl-2H-pyrazolo[3,4-b]pyridin-5-yl)thieno[2,3-b]pyrazin-6-yl)methanol]: the IC50 came to 0.44 nM.
For `CN1CCCC(C(O)c2cc3ccc(-c4cnc5nn(C)cc5c4)nc3s2)C1` (stereo not drawn) [Compound B63], the IC50 came out at 15 nM.
For the compound `COCC[C@H](O)c1cc2ccc(-c3cnc4nn(C)cc4c3)cc2s1` (single isomer, unassigned) [Compound B59S], the IC50 was determined as 1100 nM.
In the case of `Cn1cc2cc(-c3ccc4cc(C5(O)CCS(=O)(=O)CC5)sc4n3)cnc2n1` [Compound C8, 4-(6-(2-methyl-2H-pyrazolo[3,4-b]pyridin-5-yl)thieno[2,3-b]pyridin-2-yl)tetrahydro-2H-thiopyran-4-ol 1,1-dioxide], the IC50 was 67.7 nM.
On to `Cc1cn2cc(-c3ccc4cc([C@@H](O)C5CC(F)(F)C5)sc4n3)ccc2n1` (single isomer, unassigned) [Compound B48S], for which the IC50 is 11.8 nM.
As for `CN1CCC(C(O)c2cc3ccc(-c4cnc5nn(C)cc5c4)nc3s2)CC1` (stereo not drawn) [Compound B33, (1-methyl-4-piperidinyl)(6-(2-methyl-2H-pyrazolo[3,4-b]pyridin-5-yl)thieno[2,3-b]pyridin-2-yl)methanol], the 50% inhibitory concentration (IC50) stood at 27 nM.
Consider `Cn1ncc2cc(-c3ccc4cc([C@@H](O)C5CCOCC5)sc4n3)cnc21` (single isomer, unassigned) [Compound B35S], for which the IC50 is 149 nM.
Turning to `Cn1nc2cc(-c3ccc4cc([C@@H](O)C5CCOCC5)sc4n3)cnc2n1` (single isomer, unassigned) [Compound B39S], the IC50 worked out at 184 nM.
Take `C[C@@H]1CC[C@@]1(O)c1cc2ccc(-c3cnc4nn(C)cc4c3)nc2s1` (single isomer, unassigned) [Compound C64SR]: the IC50 came out at 466 nM.
For the compound `Cn1cc2cc(-c3cc(-c4ccnn4C)c4cc(C(O)(C5CCC5)C(F)(F)F)sc4n3)cnc2n1` (stereo not drawn) [Compound C24, 1-cyclobutyl-2,2,2-trifluoro-1-(6-(2-methyl-2H-pyrazolo[3,4-b]pyridin-5-yl)-4-(1-methyl-1H-pyrazol-5-yl)thieno[2,3-b]pyridin-2-yl)ethanol], the IC50 was 230 nM.
With `O[C@H](c1cc2ccc(-c3cnc4[nH]nnc4c3)nc2s1)C1CCOCC1` (single isomer, unassigned) [Compound B44S], the IC50 came to 133 nM.
The value for `CC(C)n1cc2cc(-c3ccc4cc([C@@H](O)C5CC(F)(F)C5)sc4n3)ccc2n1` (single isomer, unassigned) [Compound B56S] was 18.3 nM; that for `COCC(O)(c1cc2ccc(-c3cnc4nn(C)cc4c3)nc2s1)C(F)(F)F` (stereo not drawn) [Compound C16, 1,1,1-trifluoro-3-methoxy-2-(6-(2-methyl-2H-pyrazolo[3,4-b]pyridin-5-yl)thieno[2,3-b]pyridin-2-yl)-2-propanol] was 235 nM; that for `CC(O)c1cc2c(-c3cnc4nn(C)cc4c3)cc(C3CC3)nc2s1` (stereo not drawn) [Compound B12, 1-(6-cyclopropyl-4-(2-methyl-2H-pyrazolo[3,4-b]pyridin-5-yl)thieno[2,3-b]pyridin-2-yl)ethanol] was 57.8 nM.
The value for `Cn1cc2cc(-c3ccc4cc([C@@H](O)CCC(F)(F)F)sc4c3)cnc2n1` (single isomer, unassigned) [Compound B60S] was 308 nM; that for `Cn1ncc2cc(-c3ccc4cc([C@@H](O)C5CCOCC5)sc4n3)ccc21` (single isomer, unassigned) [Compound B34S] was 4700 nM.
Turning to `CN1CC(C(O)c2cc3ccc(-c4cnc5nn(C)cc5c4)nc3s2)C1` (stereo not drawn) [Compound B42, (1-methyl-3-azetidinyl)(6-(2-methyl-2H-pyrazolo[3,4-b]pyridin-5-yl)thieno[2,3-b]pyridin-2-yl)methanol], the IC50 turned out to be 12.8 nM.
`Cc1nc2ccc(-c3ccc4cc([C@@H](O)C5CC(F)(F)C5)sc4n3)cc2o1` (single isomer, unassigned) [Compound B51S]: the IC50 came out at 6.58 nM.
`CCC[C@H](O)c1cc2ccc(-c3cnc4nn(C)cc4c3)cc2s1` (single isomer, unassigned) [Compound B54S]: the concentration for half-maximal inhibition (IC50) is 757 nM.
As for `Cn1cc2cc(-c3cc(-c4ccnn4C)nc4sc(C(O)C5CCC5)cc34)cnc2n1` (stereo not drawn) [Compound B3, cyclobutyl(4-(2-methyl-2H-pyrazolo[3,4-b]pyridin-5-yl)-6-(1-methyl-1H-pyrazol-5-yl)thieno[2,3-b]pyridin-2-yl)methanol], the IC50 turned out to be 64.3 nM.
In the case of `CCC(C)(O)c1cc2ccc(-c3cnc4nn(C)cc4c3)nc2s1` (stereo not drawn) [Compound C10, 2-(6-(2-methyl-2H-pyrazolo[3,4-b]pyridin-5-yl)thieno[2,3-b]pyridin-2-yl)-2-butanol], the IC50 was 195 nM.
The figure for `CN1CCC(O)(c2cc3ccc(-c4cnc5nn(C)cc5c4)nc3s2)CC1` [Compound C7, 1-methyl-4-(6-(2-methyl-2H-pyrazolo[3,4-b]pyridin-5-yl)thieno[2,3-b]pyridin-2-yl)-4-piperidinol] is 2920 nM.
The figure for `O[C@]1(c2cc3cnc(-c4cnc5nncn5c4)nc3s2)C[C@H](C(F)(F)F)C1` [Compound C129C, cis-1-(2-([1,2,4]triazolo[4,3-a]pyrimidin-6-yl)thieno[2,3-d]pyrimidin-6-yl)-3-(trifluoromethyl)cyclobutanol] is 3.5 nM; for `CC(O)c1cc2c(-c3cnc4nn(C)cc4c3)cc(-c3ccnn3C)nc2s1` (stereo not drawn) [Compound B5, 1-(4-(2-methyl-2H-pyrazolo[3,4-b]pyridin-5-yl)-6-(1-methyl-1H-pyrazol-5-yl)thieno[2,3-b]pyridin-2-yl)ethanol] it is 78.4 nM; for `Cn1nccc1-c1cc(-c2ccnn2C)c2cc(C(O)C3CCC3)sc2n1` (stereo not drawn) [Compound B1, (4,6-bis(1-methyl-1H-pyrazol-5-yl)thieno[2,3-b]pyridin-2-yl)(cyclobutyl)methanol] it is 58.6 nM.
As to `O[C@H](c1cc2ccc(-c3ccc4[nH]ncc4c3)nc2s1)C1CCOCC1` (single isomer, unassigned) [Compound B37S], the IC50 turned out to be 1880 nM.
The figure for `Cn1cc2cc(-c3ccc4cc(C5(O)CCCC5)sc4n3)cnc2n1` [Compound C19, 1-(6-(2-methyl-2H-pyrazolo[3,4-b]pyridin-5-yl)thieno[2,3-b]pyridin-2-yl)cyclopentanol] is 40.6 nM; for `Cc1cc2[nH]ncc2cc1-c1ccc2cc([C@@H](O)C3CCOCC3)sc2n1` (single isomer, unassigned) [Compound B38S] it is 1010 nM.
The figure for `Cn1cc2cc(-c3ccc4cc(C5(O)COC5)sc4n3)cnc2n1` [Compound C18, 3-(6-(2-methyl-2H-pyrazolo[3,4-b]pyridin-5-yl)thieno[2,3-b]pyridin-2-yl)-3-oxetanol] is 12.9 nM.
In the case of `CN1CC(O)(c2cc3ccc(-c4cnc5nn(C)cc5c4)nc3s2)C1` [Compound C12, 1-methyl-3-(6-(2-methyl-2H-pyrazolo[3,4-b]pyridin-5-yl)thieno[2,3-b]pyridin-2-yl)-3-azetidinol], the IC50 was found to be 7.27 nM.
For `Nc1c(C(O)C2CC(F)(F)C2)sc2nc(-c3cncnc3)ccc12` (stereo not drawn) [Compound B71, (3-amino-6-(5-pyrimidinyl)thieno[2,3-b]pyridin-2-yl)(3,3-difluorocyclobutyl)methanol], the IC50 stood at 0.749 nM.
As for `CC[C@H](O)c1cc2c(C3CC3)cc(-c3cnc4nn(C)cc4c3)nc2s1` (single isomer, unassigned) [Compound B13S], the IC50 was 23.6 nM.

(Values after patent publication US20240409557A1, “5,6-FUSED AND 6,6-FUSED BICYCLIC ALCOHOLS AND ETHERS AND COMPOSITIONS FOR USE AS 15-PROSTAGLANDIN DEHYDROGENASE MODULATORS” (AMGEN INC., priority 2023, published 2024).)
